Assay results: paper PMC3791872 (Bioscience Reports, 2013)

How the values were obtained:
Mcm2-7 [1] = system: T1, Mcm2-7; experiment: Steady-state ATP hydrolysis by Mcm2-7; type: biochemical, Saccharomyces cerevisiae; details: 1 mM compound, 100 nM hexamer
T1 construct: made in house; host or cells: baculovirus-infected insect cells

Wheat Germ Topo I = experiment: Topo I activity inhibition assay; details: 1 mM inhibitor added together with Topo I (Figure 3D)
SV40 large TAg = target: T2, SV40 large TAg (Simian virus 40, UniProt P03070); experiment: Steady-state ATP hydrolysis by TAg; type: biochemical, SV40 (simian virus 40); details: 1 mM compound, 100 nM hexamer
T2 construct: made in house
T2 sequence (P03070 whole entry): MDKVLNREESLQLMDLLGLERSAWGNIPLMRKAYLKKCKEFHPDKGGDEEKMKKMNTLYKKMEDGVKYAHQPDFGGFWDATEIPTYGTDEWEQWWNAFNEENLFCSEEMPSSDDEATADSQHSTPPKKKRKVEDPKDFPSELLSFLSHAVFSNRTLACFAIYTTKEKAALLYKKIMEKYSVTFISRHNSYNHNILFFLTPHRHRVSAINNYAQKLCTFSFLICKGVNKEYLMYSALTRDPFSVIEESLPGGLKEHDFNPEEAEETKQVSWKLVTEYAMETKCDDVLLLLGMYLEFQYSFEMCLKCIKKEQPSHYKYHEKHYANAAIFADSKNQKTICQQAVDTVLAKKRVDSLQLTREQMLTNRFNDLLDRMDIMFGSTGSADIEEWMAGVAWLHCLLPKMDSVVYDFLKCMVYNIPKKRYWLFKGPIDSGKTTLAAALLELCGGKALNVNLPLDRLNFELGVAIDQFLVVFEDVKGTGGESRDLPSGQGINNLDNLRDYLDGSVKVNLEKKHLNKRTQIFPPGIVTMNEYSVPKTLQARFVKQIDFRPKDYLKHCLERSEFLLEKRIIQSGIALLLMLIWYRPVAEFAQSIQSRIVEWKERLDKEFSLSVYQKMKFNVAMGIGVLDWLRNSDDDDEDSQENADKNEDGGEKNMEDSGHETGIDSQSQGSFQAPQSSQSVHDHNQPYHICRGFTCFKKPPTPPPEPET

Mcm467 [2] = target: T3, Mcm467 (Saccharomyces cerevisiae, UniProt P30665+P38132+P53091); experiment: ssDNA double filter-binding assay, Mcm467; details: 1 mM compound, 150 nM helicase
T3 construct: made in house; host or cells: baculovirus-infected insect cells
T3 sequence (P30665 whole entry): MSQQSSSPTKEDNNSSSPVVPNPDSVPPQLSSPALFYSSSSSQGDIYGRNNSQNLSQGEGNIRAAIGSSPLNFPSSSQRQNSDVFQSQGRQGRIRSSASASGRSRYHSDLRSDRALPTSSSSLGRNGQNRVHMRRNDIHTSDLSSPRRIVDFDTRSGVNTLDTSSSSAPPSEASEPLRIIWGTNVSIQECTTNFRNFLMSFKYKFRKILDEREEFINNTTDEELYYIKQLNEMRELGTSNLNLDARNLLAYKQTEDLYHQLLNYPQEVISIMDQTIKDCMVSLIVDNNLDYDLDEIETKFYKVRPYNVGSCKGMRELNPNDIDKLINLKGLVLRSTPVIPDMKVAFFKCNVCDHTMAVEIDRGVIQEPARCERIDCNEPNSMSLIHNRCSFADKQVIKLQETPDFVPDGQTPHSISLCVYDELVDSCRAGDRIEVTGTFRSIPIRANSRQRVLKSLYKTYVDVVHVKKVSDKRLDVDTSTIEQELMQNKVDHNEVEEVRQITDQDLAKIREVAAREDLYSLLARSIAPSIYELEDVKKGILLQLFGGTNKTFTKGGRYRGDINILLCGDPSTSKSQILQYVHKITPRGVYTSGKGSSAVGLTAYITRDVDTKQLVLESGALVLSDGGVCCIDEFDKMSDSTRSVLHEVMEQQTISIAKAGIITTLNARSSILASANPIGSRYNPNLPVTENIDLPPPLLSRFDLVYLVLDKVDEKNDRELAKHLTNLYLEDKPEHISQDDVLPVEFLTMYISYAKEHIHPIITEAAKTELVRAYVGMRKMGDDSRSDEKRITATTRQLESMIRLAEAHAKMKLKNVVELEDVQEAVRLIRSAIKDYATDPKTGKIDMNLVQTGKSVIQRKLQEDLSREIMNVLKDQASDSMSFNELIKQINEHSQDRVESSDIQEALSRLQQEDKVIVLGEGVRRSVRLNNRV
T3 sequence (P53091 whole entry): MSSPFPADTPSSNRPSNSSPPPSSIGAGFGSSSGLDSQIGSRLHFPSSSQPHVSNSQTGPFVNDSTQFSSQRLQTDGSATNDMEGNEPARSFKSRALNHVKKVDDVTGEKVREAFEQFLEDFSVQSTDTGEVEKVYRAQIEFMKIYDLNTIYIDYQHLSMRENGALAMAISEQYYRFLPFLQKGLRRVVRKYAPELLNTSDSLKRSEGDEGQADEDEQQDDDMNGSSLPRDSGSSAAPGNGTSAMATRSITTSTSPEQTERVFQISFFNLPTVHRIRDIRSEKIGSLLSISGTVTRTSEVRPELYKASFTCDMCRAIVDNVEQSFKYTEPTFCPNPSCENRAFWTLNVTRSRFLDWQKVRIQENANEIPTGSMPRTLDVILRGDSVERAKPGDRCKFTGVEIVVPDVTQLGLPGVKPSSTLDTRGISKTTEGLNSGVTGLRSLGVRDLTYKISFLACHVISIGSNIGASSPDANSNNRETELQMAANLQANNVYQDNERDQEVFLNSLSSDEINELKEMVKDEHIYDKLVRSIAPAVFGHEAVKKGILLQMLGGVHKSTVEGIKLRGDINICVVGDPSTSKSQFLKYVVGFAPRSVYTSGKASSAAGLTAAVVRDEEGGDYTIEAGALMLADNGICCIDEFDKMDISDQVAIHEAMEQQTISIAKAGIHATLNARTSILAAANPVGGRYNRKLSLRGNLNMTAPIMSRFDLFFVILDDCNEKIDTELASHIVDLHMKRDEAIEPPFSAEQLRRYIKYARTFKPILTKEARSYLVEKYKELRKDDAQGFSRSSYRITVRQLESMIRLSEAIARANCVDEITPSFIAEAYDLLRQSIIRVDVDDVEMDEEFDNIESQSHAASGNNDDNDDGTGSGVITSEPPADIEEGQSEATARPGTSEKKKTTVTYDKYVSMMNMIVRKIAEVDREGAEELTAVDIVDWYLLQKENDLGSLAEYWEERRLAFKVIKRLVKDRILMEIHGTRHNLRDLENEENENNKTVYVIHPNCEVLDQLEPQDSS
T3 sequence (P38132 whole entry): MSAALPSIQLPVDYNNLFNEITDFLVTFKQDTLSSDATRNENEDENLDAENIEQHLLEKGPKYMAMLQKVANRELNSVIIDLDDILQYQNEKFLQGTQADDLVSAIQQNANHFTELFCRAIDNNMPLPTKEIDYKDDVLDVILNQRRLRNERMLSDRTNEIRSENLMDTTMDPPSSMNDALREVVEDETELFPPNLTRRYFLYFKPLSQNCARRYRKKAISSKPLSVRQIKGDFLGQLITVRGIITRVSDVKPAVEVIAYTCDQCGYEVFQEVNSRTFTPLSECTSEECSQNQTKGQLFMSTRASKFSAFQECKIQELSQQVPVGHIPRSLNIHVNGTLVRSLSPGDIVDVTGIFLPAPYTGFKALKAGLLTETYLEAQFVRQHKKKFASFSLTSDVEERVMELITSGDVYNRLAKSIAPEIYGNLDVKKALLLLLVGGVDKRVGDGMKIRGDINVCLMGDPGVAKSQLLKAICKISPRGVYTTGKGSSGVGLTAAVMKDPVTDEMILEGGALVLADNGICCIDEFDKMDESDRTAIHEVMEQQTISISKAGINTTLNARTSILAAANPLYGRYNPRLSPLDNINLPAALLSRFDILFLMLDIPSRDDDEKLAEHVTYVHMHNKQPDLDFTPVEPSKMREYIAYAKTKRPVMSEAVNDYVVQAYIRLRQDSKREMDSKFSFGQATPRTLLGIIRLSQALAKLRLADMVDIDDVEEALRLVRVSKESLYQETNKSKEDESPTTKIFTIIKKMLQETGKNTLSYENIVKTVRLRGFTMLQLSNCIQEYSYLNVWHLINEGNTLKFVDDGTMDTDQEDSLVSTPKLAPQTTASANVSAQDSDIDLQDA

Mcm2-7 [3] = system: T1, Mcm2-7; experiment: ssDNA double filter-binding assay, Mcm2-7; set-up: species or system Saccharomyces cerevisiae; details: 1 mM compound, 150 nM helicase
Mcm467 [4] = target: T3, Mcm467; experiment: Steady-state ATP hydrolysis by Mcm467; type: biochemical; details: 1 mM compound, 100 nM hexamer
Mcm2-7 [5] = target: T1, Mcm2-7; experiment: Mcm2-7 helicase (DNA unwinding) assay; type: biochemical, Saccharomyces cerevisiae; details: DNA unwinding, 100 nM hexamer, inhibitor preincubation; value (95% CI); read-out: IC50 Mcm2-7
Mcm467 [6] = target: T3, Mcm467; experiment: Mcm467 helicase (DNA unwinding) assay; type: biochemical; details: DNA unwinding, 100 nM hexamer, inhibitor preincubation; value (95% CI); read-out: IC50 Mcm467
pUC19 = experiment: DNA intercalation assay (Topo I-relaxed plasmid); type: biochemical; details: 1 mM inhibitor added after plasmid relaxation (Figure 3C)
Excerpt: To examine this model, we tested our inhibitors in a standard topoisomerase assay. The rationale of this assay is that intercalating compounds will introduce supercoils into a fully relaxed plasmid. Topo I will remove these introduced supercoils, but after quenching and gel electrophoresis the intercalator will diffuse away and produce a detectable compensatory supercoiling increase.

[7] = target: SV40 large TAg (T-antigen) (Simian virus 40, UniProt P03070); experiment: biochemical; set-up: species or system SV40 (simian virus 40); details: DNA unwinding, 100 nM hexamer, inhibitor preincubation; […]; read-out: IC50 T-antigen
Sequence of SV40 large TAg (T-antigen) (P03070 whole entry, looked up): as the sequence (P03070 whole entry) above

[8] = system: S. cerevisiae ∆erg6 (UPY675); experiment: Yeast growth inhibition, 96-well assay, ∆erg6 strain; type: cell-based, Saccharomyces cerevisiae; details: Saccharomyces cerevisiae, 24 h, read-out: IC50 Yeast
Solubility in assay = details: helicase assay conditions

Compound | effect on ATP hydrolysis of Mcm2-7 (Mcm2-7 [1]) | Topo I inhibition (Wheat Germ Topo I) | effect on ATP hydrolysis of TAg (SV40 large TAg) | effect on ssDNA binding of Mcm467 (Mcm467 [2]) | effect on ssDNA binding of Mcm2-7 (Mcm2-7 [3]) | effect on ATP hydrolysis of Mcm467 (Mcm467 [4]) | IC50 (Mcm2-7 [5]) [µM] | IC50 (Mcm467 [6]) [µM] | DNA intercalation (pUC19) | IC50 [7] [µM] | IC50 [8] [µM] | solubility (Solubility in assay)
CC1=C(C(=O)OCc2ccccc2)C(c2ccc(-c3ccccc3)cc2)NC(=O)N1CCCCCC(=O)O (stereo not shown) [MAL2-11b, reference compound] | completely inhibits | Topo I inhibitor | completely inhibits | inhibit | inhibit | completely inhibits | 96 | 112 | little or no intercalation | 192 |  | 
CCn1cc(C(=O)O)c(=O)c2c(N)c(F)c(N3CCNCC3)c(F)c21 [compound 271327] | essentially no inhibition |  | essentially no inhibition |  |  | essentially no inhibition | 361 | 460 | little or no intercalation | > 1000 | 700 | limited solubility
